Data taken from patent US3979508A, “Compositions and methods therewith for penicillin hypersensitivity detection” (Kremers-Urban Company, priority 1975, dated 1976).
Values joined by “and” are separate entries in the source; they are usually repeats but may differ in a detail not shown here. Equal entries are not always repeated.

Test system: penicillin hypersensitivity (patients)
Experiment: Clinical evaluation by 26 investigators: scratch/intradermal skin tests with PPL and Penicillin G (Tables IV-VII, IX-XI)
Format: in vivo, human
Description: Twenty-six clinical investigators contributed a total of 1160 cases to the evaluation. Patients were tested according to a protocol as follows:
1. All patients being subjected to allergy investigation were to be tested for penicillin hypersensitivity. Two preparations were to be used. These are:
2. Penicillin G (Benzyl Penicillin) in a concentration of 10,000 units per cc.
For maximum safety, it was recommended that the tests first be done by the scratch technique. Intradermal tests were then to be done on those showing negative scratch tests. In cases where the penicillin sensitivity was suspected to be of a violent character, more dilute reagents were recommended at the discretion of the individual investigator.
A uniform technique was recommended for the performance of the intradermal tests. Only a minimal amount of testing reagent was to be injected so as to make a barely discernible intradermal bleb. The amount necessary for this injection is about 0.01 to 0.03 cc. It was recognized that the intrepretation of the test results is an important matter. The reactions were to be recorded in terms of (1) the time required for the appearance of a reaction, (2) the size of erythema and (3) the size of whealing. These were to be recorded as actual measurements. Some objective measurement of dermographism was also to be recorded.
It was also contemplated that all patients who were to be treated with penicillin be tested as recommended above, even though they had previously received penicillin with impunity.
A comprehensive clinical history was takan on each patient with particular regard to previous penicillin therapy, and reaction.
In order to properly analyze the data on such a large number of patients, a data processing system was utilized.
Table IV summarizes the skin test results on all patients, without regard to other specific factors. […] It will also be noted that a significant number of patients reacted only to PPL, and another group only to Pen G. Therefore, to detect the maximum number of reactors, both test reagents would be required. A technical problem was classification of the ambiguous or borderline reactors, particularly those showing only erythema. Attempts to correlate the appearance of the erythematous flare without wheal formation with a history of penicillin hypersensitivity were unsuccessful. In some instances, however, erythema without wheal did appear to be associated with hypersensitivity to the antibiotic. The time of development of erythema without wheal varied widely from a few minutes to more than 7 days which also made its importance questionable. as a diagnostic sign. For these reasons erythema alone responses were counted with the negatives. In some instances, however, data will be presented in which erythema without wheal are counted as positive responses (figures appearing in parentheses).

[1] = Group I (675 patients): penicillin Rx, no hypersensitivity, erythema only counted as negative
[2] = Group I (675 patients): penicillin Rx, no hypersensitivity, parentheses: erythema only (ambiguous) counted as positive
[3] = Group II (352 patients): penicillin Rx & hypersensitive, erythema only counted as negative
[4] = Group II (352 patients): penicillin Rx & hypersensitive, parentheses: erythema only (ambiguous) counted as positive
[5] = Group III (70 patients): no penicillin Rx in past, erythema only counted as negative
[6] = Group III (70 patients): no penicillin Rx in past, parentheses: erythema only (ambiguous) counted as positive
[7] = Group IV (56 patients): no data, erythema only counted as negative
[8] = Group IV (56 patients): no data, parentheses: erythema only (ambiguous) counted as positive
[9] = TOTALS (1153 patients), erythema only counted as negative
[10] = TOTALS (1153 patients), parentheses: erythema only (ambiguous) counted as positive
[11] = TOTALS, all patients (1153 tested), erythema only counted as negative
[12] = TOTALS, all patients (1153 tested), parentheses: erythema only (ambiguous) counted as positive
[13] = all patients (1153 tested), erythema only counted as negative
[14] = all patients (1153 tested), parentheses: erythema only (ambiguous) counted as positive
[15] = history of therapy: Multi Courses (177 tested)
[16] = history of therapy: One Course (249 tested)
[17] = history of therapy: One Dose (152 tested)
[18] = history of therapy: TOTALS (578 tested)

penicilloyl-poly-L-lysine [PPL]
Skin Test (+) No. [1]: 36
Skin Test (+) Percent [1]: 5.3%
Skin Test (-) No. [1]: 639
Skin Test (-) Percent [1]: 94.7%
Skin Test (+) No. [2]: 78
Skin Test (+) Percent [2]: 11.6%
Skin Test (-) No. [2]: 597
Skin Test (-) Percent [2]: 88.4%
Skin Test (+) No. [3]: 73
Skin Test (+) Percent [3]: 20.7%
Skin Test (-) No. [3]: 279
Skin Test (-) Percent [3]: 79.3%
Skin Test (+) No. [4]: 97
Skin Test (+) Percent [4]: 27.6%
Skin Test (-) No. [4]: 255
Skin Test (-) Percent [4]: 72.4%
Skin Test (+) No. [5]: 1
Skin Test (+) Percent [5]: 1.4%
Skin Test (-) No. [5]: 69
Skin Test (-) Percent [5]: 98.6%
Skin Test (+) No. [6]: 6
Skin Test (+) Percent [6]: 8.6%
Skin Test (-) No. [6]: 64
Skin Test (-) Percent [6]: 91.4%
Skin Test (+) No. [7]: 3
Skin Test (+) Percent [7]: 5.4%
Skin Test (-) No. [7]: 53
Skin Test (-) Percent [7]: 94.6%
Skin Test (+) No. [8]: 4
Skin Test (+) Percent [8]: 7.1%
Skin Test (-) No. [8]: 52
Skin Test (-) Percent [8]: 92.9%
SKIN TEST RESPONSE No. (No reactions (675 tested)): 36
SKIN TEST RESPONSE Percent (No reactions (675 tested)): 5.3%
Skin Test (-) No. [9]: 1040
Skin Test (-) Percent [9]: 90.2%
Skin Test (-) No. [10]: 968
Skin Test (-) Percent [10]: 84.0%
Skin Test (+) No. [11]: 113
Skin Test (+) Percent [11]: 9.8%
Skin Test (+) No. [12]: 185
Skin Test (+) Percent [12]: 16.1% and 16.0%
PPL (+) PG (+) No. [13]: 34
PPL (+) PG (+) Percent [13]: 3.0%
PPL (+) PG (-) No. [13]: 79
PPL (+) PG (-) Percent [13]: 6.9%
PPL (-) PG (+) No. [13]: 38
PPL (-) PG (+) Percent [13]: 3.3%
PPL (-) PG (-) No. [13]: 1002
PPL (-) PG (-) Percent [13]: 86.9%
PPL (+) PG (+) No. [14]: 80
PPL (+) PG (+) Percent [14]: 6.9%
PPL (+) PG (-) No. [14]: 105
PPL (+) PG (-) Percent [14]: 9.1%
PPL (-) PG (+) No. [14]: 49
PPL (-) PG (+) Percent [14]: 4.3%
PPL (-) PG (-) No. [14]: 919
PPL (-) PG (-) Percent [14]: 79.7%
positive skin tests, patients positive/patients in group (delayed (after 24 hours) group): 24/144
positive skin tests, percent of group (delayed (after 24 hours) group, 144 patients): 16.7%
Skin Reactions PPL- / PEN G- No. [15]: 14
Skin Reactions PPL- / PEN G- Percent [15]: 7.9%
Skin Reactions PPL- / PEN G- No. [16]: 14
Skin Reactions PPL- / PEN G- Percent [16]: 5.6%
Skin Reactions PPL- / PEN G- No. [17]: 24
Skin Reactions PPL- / PEN G- Percent [17]: 15.8%
Skin Reactions PPL- / PEN G- No. [18]: 52
Skin Reactions PPL- / PEN G- Percent [18]: 9.0%
